Experimental data as given in paper PMC5318439, “The Novel Toll-Like Receptor 2 Agonist SUP3 Enhances Antigen Presentation and T Cell Activation by Dendritic Cells” (Frontiers in Immunology, 2017).
Where a SMILES comes first, the peptide text is derived from it. The star is where a group is joined. X1 = CCCCCCCCCCCCCCNC(=O)OC[C@H](C*)OC(=O)NCCCCCCCCCCCCCC; Palmitoyl = CCCCCCCCCCCCCCCC(=O)*

Key:
[1] = test system: OVA-specific CD8^+ T cells; assay: OCS immunization, OVA-specific CD8+ T cells (CTL induction) in spleen; type: in vivo, C57BL/6 mice; conditions: 10 nmol, data not shown; for CTL induction at high dose: OCS immunization; for spleen size at high dose: mice
Experimental: Splenocytes were X-ray irradiated (1500 Rad) and then coated with OVA (1 mg per spleen) in RPMI 1640 medium (Gibco 11875-119) for 30 min at 37°C. Cells were washed twice with RPMI 1640 medium. […] Seven days post-immunization, OVA-specific CD8^+ T cells in spleen were analyzed by flow cytometry by staining with fluorescence-conjugated antibodies against CD19 (eBioscinece, clone 1D3), CD3 (eBioscinece, clone 145-2C11), CD8 (eBioscinece, clone 53-6.7), and SIINFEKL/H-2Kb-Pentamer (ProImmune F093-4A).
Figure 2 SUP3 induced more vigorous cytotoxic T lymphocytes (CTLs) responses than Pam3CSK4 without excessive production of inflammatory cytokines in vivo. […] The percentages of pentamer positive cells (CD19^− CD3^+ CD8^+ SIINFEKL/H-2Kb-Pentamer^+) in spleens, i.e., the OVA-specific CD8^+ T cells, were determined by flow cytometry (A) and the statistic calculation is presented in (B). Representative data from three independent experiments with three mice in each group were presented. (C,D) Mice were immunized as in (A) for 30 days, then inoculated with OVA-expressing B16 melanoma cells (B16-OVA) (5 × 10^5 cells per mouse) by i.v. injection and analyzed for metastatic tumor formation in the lung 16 days after inoculation. Data from two independent experiments with three mice in each group were shown. […] “n.d.” indicates “not detected.” *p < 0.05, **p < 0.01. TEXT PRINTED IN THE PICTURE: (A) Pam3: Pentamer^+ (% of CD8^+ T): 1.57 (OCS) | (A) SUP3: Pentamer^+ (% of CD8^+ T): 2.98 (OCS) | (E) Pam3: IL-12p40 (ng/mL): n.d | (E) SUP3: IL-12p40 (ng/mL): n.d DOUBTS OF THE COPYIST ABOUT THIS PICTURE: Panel A also prints 0.37 for the control Non and 0.72 for the vehicle control PBS (OCS). Both are left out because they are controls, not test substances. / Panel E prints n.d for the vehicle control PBS in all four plots. These are left out for the same reason.

CD8^+ cDCs = assay: Antigen cross-presentation by splenic CD8+ cDCs to OT-I CD8+ T cells in vitro; type: cell-based, mice; conditions: 200 nM; SUP3 versus Pam3
Experimental: Antigen presentation assays were performed as previously described ([38]). Briefly, ovalbumin (OVA) (10 µg/mL; Sigma A7641) pulsed cDCs were stimulated with or without TLR agonists for 4 h. OT-I CD8^+ T cells and OT-II CD4^+ T cells were purified and then labeled by carboxyfluorescein diacetate succinimidyl ester (CFSE) (1 µM; Molecular Probes C34554). CD8^+ cDCs were cocultured with OT-I CD8^+ T cells for 60 h, whereas CD11b^+ cDCs were cocultured with OT-II CD4^+ T cells for 96 h, both in the presence of granulocyte-macrophage colony-stimulating factor (GM-CSF) (20 ng/mL; Peprotech 315-03). Proliferated OT-I or OT-II T cells were defined as diluted CFSE signal analyzed by flow cytometry. The numbers of T cells were counted by AccuCheck counting beads (Molecular Probes PCB100). […] Cells were washed twice with cold medium and analyzed by flow cytometry.
Figure 3 SUP3 facilitated cross-presentation of ovalbumin (OVA) antigen by CD8^+ conventional dendritic cells (cDCs) in vitro. […] Cells were washed and cocultured with carboxyfluorescein diacetate succinimidyl ester (CFSE)-labeled OT-I CD8^+ T cells for 60 h and analyzed by flow cytometry. (A) The dividing OT-I cells were measured by reduced level of CFSE-labeling. […] (B) Absolute numbers of proliferated OT-I T cells were calculated. (C) Interferon-γ from the supernatant of coculture was determined by ELISA 24 h later. […]

Compound | CTL induction at high dose [1] | spleen size at high dose [1] | enhancement of cross-presentation by CD8+ cDCs in vitro (CD8^+ cDCs)
CCCCCCCCCCCCCCCC(=O)N[C@@H](CSC[C@@H](COC(=O)NCCCCCCCCCCCCCC)OC(=O)NCCCCCCCCCCCCCC)C(=O)NCC(=O)N[C@@H](CCCCN)C(=O)N[C@@H](CCCCN)C(=O)N[C@@H](CCCCN)C(=O)O [SUP3, (2S,5S,8S,14R,18R)-2,5,8-tris(4-aminobutyl)-4,7,10,13,21-pentaoxo-14-palmitamido-18-((tetradecylcarbamoyl)oxy)-20-oxa-16-thia-3,6,9,12,22-pentaazahexatriacontan-1-oic acid] (Palmitoyl-C(X1)GKKK-OH) | decreased CTL induction | enlarged spleens | comparable
Pam3CSK4 [reference compound] | did not have the same effect | did not have the same effect | comparable
